Here are results for 3 molecules from patent publication US20170000112A1, “METHOD OF PRESERVING CUT ROSES DURING TRANSPORTATION AND STORAGE AND SHIPMENT KIT CONTAINING CUT ROSES” (priority 2013, published 2017).

Experiment [1] concerns cut roses. Put plainly: Vase life of cut roses after 14 days simulated dry refrigerated transport (Examples 1 and 2). The experiment is classed as in vivo, rose. As to conditions: flower heads dipped 3 s in 80 ppm BA, 14 days dry transport at 2° C. Here is the method: Freshly cut red roses (Red Desire') were obtained from a greenhouse in the Netherlands. These flowers were randomly divided into three different sets . Within 4 hours of cutting, one set of flowers (set A) was subjected to a preservation treatment that involved dipping of the flower heads into an aqueous solution of 80 ppm 6-benzylaminopurine (BA) in tap water for 3 seconds. Immediately after the preservation treatment, each set of flowers was bunched and sleeved (6 flowers per sleeved bunch) after the ends of the flower stems had been cut off, and in total 108 flowers of each set were kept 24 hours at 2° C. under dark conditions in buckets (54 stems per bucket) with the flower stems immersed in 2 liters of water containing 1 ml/l of a flower pre-treatment product ([…]® Grow 20). Following this pre-treatment, the sleeved flower bunches of set A were removed from the buckets and packaged without any external water supply in a carton box (l×b×h=1.0×0.4×0.2 m). The carton box contained 18 sleeved flower bunches. One of the other two sets of flowers (Control) was packaged in the same way. The remaining set of flowers (Reference) was not packaged dry into a carton box, but immediately subjected to the sequence of storage and display conditions described in Table 1. [table] Before the refrigerated storage and the home display the ends of the flower stems were cut off. The packaged flowers (sleeved and in a carton box) belonging to Set A and the Control set were subjected to simulated refrigerated transport under dry, dark conditions for 14 days at 2° C. before also being subjected to the sequence of storage and display conditions described in Table 1. Before the refrigerated storage stage the BA concentrations in the flower heads were analyzed. In addition, the vase life of the flowers was assessed by an expert panel during the home display period. Example 1 was repeated, except that this time, instead of using cut roses obtained from a Dutch green house, cut roses that had been air transported under dry conditions from Kenya to the Netherlands were used. Three different types of cut red roses were used in this study, namely 'Hot Blood', 'Rhodos' and 'Incredible'.

Experiment [2] concerns cut red roses. Put plainly: Colour retention of red roses after 11 days on the vase (Examples 1 and 2). In kind it is in vivo, rose. The settings on record: dipped in 80 ppm BA.
Experiment [3] concerns cut roses. Put plainly: Vase life and leaf quality after 9 days simulated dry transport (Examples 3 and 4). In kind it is in vivo, rose. The settings on record: for Vase life: dipped in 80 ppm BA, 9 days dry transport; for Leaf quality: visual score after 12 days on the vase, 1=poor, 5=good. An excerpt: Example 1 was repeated, except that this time no Reference set was used, i.e. the study used two sets of flowers that were both transported without water supply (dry). Furthermore, the cut roses used in the study had been air transported under dry conditions from Colombia to the Netherlands. Bunches containing 4 flowers of each of three different types of roses (‘Red Intuition’ (red), ‘Citran’ (yellow), ‘Vendela’ (white) were used in this study. The duration of simulated transportation was reduced from 14 to 9 days and the duration of shop display was increased from 2 to 3 days.
Besides the vase life of the flowers the expert panel also scored visual leaf quality after 12 days on the vase (1=poor, 5=good). The BA concentration in the flower heads was not analyzed in this study.
Example 3 was repeated, except that this time the following three different types of roses were used in the study: • ‘Freedom’ (red) • ‘Bonanza’ (peach) • ‘Sandra’ (pink)

Experiment [4] concerns cut red roses. Put plainly: Vase life, dipped/dry versus BA in bucket water, 24 hours at 2° C. (Example 5). In kind it is in vivo, rose. An excerpt: Three different types of cut red roses were used in this study, namely ‘Hot Blood’, ‘Rhodos’ and ‘Incredible’. For each type flowers were randomly divided into four different sets.
One set of flowers (set A) was subjected to a preservation treatment that involved dipping of the flower heads into an aqueous solution of 80 ppm 6-benzylaminopurine (BA) in tap water for 3 seconds.
Immediately after the preservation treatment of set A, each set of flowers was bunched and sleeved (10 flowers per sleeved bunch) after the ends of the flower stems had been cut off, and in total 20 flowers of each set were kept for 4 hours at 20° C. under dark conditions in buckets (60 stems per bucket) with the flower stems immersed in 2 liters of water containing 1 ml/l of a flower pre-treatment product (Chrysal® Grow 20).
Following this pre-treatment, the sleeved flower bunches of set A were removed from the buckets and packaged without any external water supply in a carton box (l×b×h=1.0×0.4×0.2 m). The carton box contained 6 sleeved flower bunches.
One of the other three sets of non-dipped flowers(Control) was packaged in the same way, i.e. in carton boxes without external water supply.
The remaining two sets of non-dipped flowers (sets B and C) were introduced into buckets (20 stems per bucket) that each contained 2 liters of water.
The bucket water of set B contained 7 ppm BA. The bucket water of set C contained 7 ppm BA as well as 5 ml/l of Chrysal® Clear Professional 2 (CCP2). This product is based on sugars and acidifier, while biocides are present to protect these active ingredients against bacterial attack.
The four sets of roses were kept at 2° C. under dark conditions for 24 hours, following which each set was transferred into buckets (60 stems per bucket) that contained 2 liters of water to which 5 ml/l Chrysal® Clear Professional 2 had been added. Before introducing the cut flowers into the buckets, the ends of the flower stems were cut off. The buckets holding the sleeved cut flowers were kept for 4 days under dark, refrigerated (2° C.) conditions, and subsequently for 2 days at 20° C. under daylight conditions (12 hours 1000 lux and 12 hours dark).
Next, for each of the three different type of cut red roses the two bunches of 10 cut flowers from each of the sets were introduced in vases, each holding 1 liter of water to which 10 g/l Chrysal® Clear had previously been added. Before introducing the cut flowers into the vases, the ends of the flower stems were cut off. The vases holding the flowers were kept at 20° C. under daylight conditions (12 hours 1000 lux and 12 hours dark).
The quality of the cut flowers was assessed at regular intervals by an expert panel and from these assessments the average vase life was determined for the cut flowers of each of the 4 sets.
The letters behind the numerical scores in Table 8 indicate to which extent the difference between the 4 scores for a given set of cut flowers are statistically significant (at a P-value of 0.05). Scores that are followed by the same latter are not statistically significant.

In experiment [5] the test system is cut red roses. Put plainly: Vase life, dipped/dry versus BA in bucket water, 8 days at 2° C. (Example 6). The experiment is classed as in vivo, rose. Here is the method:
Example 5 was repeated, except that this time the sets of cut flowers were kept under refrigerated and dark conditions for 8 days instead of 24 hours.

Experiment [6] relates to flower spikes of gladiolus and carnation. As to conditions: stems immersed in 10, 30 and 75 ppm solution; spikes previously wilted dry for 4 hours; cited from earlier work.
The subject of another experiment is cut rose flowers. The settings on record: sprayed or held in solution prior to simulated home conditions; cited from earlier work.
The next experiment concerns rose flower buds. As to conditions: 350 mg/L (ca. 1 mM) solution; preliminary experiments, data not shown; cited from earlier work.

As to `c1ccc(CNc2ncnc3nc[nH]c23)cc1` [BA, 6-benzylaminopurine], the “Vase life” value is given as 13.9 days in the experiment on cut roses [1] ('Hot Blood' (Kenya)); 13.0 days in the experiment on cut roses [1] ('Incredible' (Kenya)); 12.8 days in the experiment with cut roses [1] ('Red Desire'); 14.9 days in the experiment with cut roses [1] ('Rhodos' (Kenya)); 14.5 days with cut roses [3] ('Bonanza' (peach)); 12.5 days in the experiment with cut roses [3] ('Citran' (yellow, Colombia)). Besides, the “Vase life” value is on record as 18.8 days with cut roses [3] ('Freedom' (red)); 9.6 days in the experiment with cut roses [3] ('Red Intuition' (red, Colombia)); 17.6 days in the experiment with cut roses [3] ('Sandra' (pink)); 13.0 days in the experiment with cut roses [3] ('Vendela' (white, Colombia)); 11.2 days in the experiment on cut red roses [4] ('Hot Blood', non-dipped, wet, stems in bucket water containing 7 ppm BA, 24 hours at 2° C.); 16.2 days in the experiment with cut red roses [4] ('Hot Blood', set A, flower heads dipped in 80 ppm BA, dry in carton box 24 hours at 2° C.). Moreover, the “Vase life” value is 11.1 days with cut red roses [4] ('Incredible', non-dipped, wet, stems in bucket water containing 7 ppm BA, 24 hours at 2° C.); 17.2 days in the experiment on cut red roses [4] ('Incredible', set A, flower heads dipped in 80 ppm BA, dry in carton box 24 hours at 2° C.); 9.4 days with cut red roses [4] ('Rhodos', non-dipped, wet, stems in bucket water containing 7 ppm BA, 24 hours at 2° C.); 13.9 days with cut red roses [4] ('Rhodos', set A, flower heads dipped in 80 ppm BA, dry in carton box 24 hours at 2° C.); 7.3 days with cut red roses [5] ('Hot Blood', non-dipped, wet, stems in bucket water containing 7 ppm BA, 8 days at 2° C.); 11.8 days with cut red roses [5] ('Hot Blood', set A, flower heads dipped in 80 ppm BA, dry in carton box 8 days at 2° C.). Besides, the “Vase life” value with cut red roses [5] ('Incredible', non-dipped, wet, stems in bucket water containing 7 ppm BA, 8 days at 2° C.) amounted to 10.4 days; in the experiment with cut red roses [5] ('Incredible', set A, flower heads dipped in 80 ppm BA, dry in carton box 8 days at 2° C.) it was 14.8 days; in the experiment with cut red roses [5] ('Rhodos', non-dipped, wet, stems in bucket water containing 7 ppm BA, 8 days at 2° C.) it was 8.2 days; in the experiment with cut red roses [5] ('Rhodos', set A, flower heads dipped in 80 ppm BA, dry in carton box 8 days at 2° C.), 13.5 days. Moreover, the “Colour of the red roses after 11 days on the vase” value in the experiment with cut red roses [2] ('Hot Blood', control showed blueing/darkening) is on record as “retained most of their original red colour”; in the experiment with cut red roses [2] ('Incredible', control showed blueing/darkening), “retained most of their original red colour”; in the experiment on cut red roses [2] ('Red Desire', control showed bluing/darkening) it was “retained most of their original red colour”; in the experiment on cut red roses [2] ('Rhodos', control showed blueing/darkening) it was “retained most of their original red colour”. Further, the Leaf quality was 3.0 with cut roses [3] (Example 3 (Red Intuition, Citran, Vendela)) and 4.0 in the experiment on cut roses [3] (Example 4 (Freedom, Bonanza, Sandra)). The “Vase life of the dipped set versus the non-dipped sets” value in the experiment on cut red roses [4] (each of the rose types, P-value of 0.05, 24 hours at 2° C.) is listed as “significantly longer vase life”; with cut red roses [5] (two of the rose types ('Rhodos', 'Incredible'), P-value of 0.05, 8 days at 2° C.), “significantly longer vase life”. Further, the “Average vase life of the dipped set versus the non-dipped sets” value in the experiment with cut red roses [5] ('Hot Blood', P-value of 0.05, 8 days at 2° C.) was “higher than that of the non-dipped sets, but the difference with the control set and set C was not statistically significant”. Moreover, the “Effect on vase life of flower spikes” value in experiment [6] is “extended the vase life”. Moreover, the “Effect on rose vase life” value with cut rose flowers was “did not benefit on rose vase life”.

On to `C=C1C[C@]23C[C@@]1(O)CC[C@H]2[C@@]12C=C[C@H](O)[C@](C)(C(=O)O1)[C@H]2[C@@H]3C(=O)O` [GA3], for which the “Effect on rose flower vase-life when applied as a spray” value in the experiment with rose flower buds is recorded as “optimal for improving rose flower vase-life”.

As to `c1coc(CNc2ncnc3[nH]cnc23)c1` [KI, kinetin], the “Effect on rose vase life” value in the experiment with cut rose flowers is reported as “did not benefit on rose vase life”.
